From US7109338B2, “1,2-disubstituted 1,4-dihydro-4-oxoquinoline compounds” (priority 1999, dated 2006)
≈ marks a conversion by molar mass, not a printed value.

Key:
HRV 2 (HGP) = assay: Anti-rhinovirus activity (MTT), HRV2; assay type: cell-based, human rhinovirus; settings: HeLa (Ohio strain) cells, MTT method, 33° C.
[1] = system: coxsackievirus type A7 (CA7); assay: In vitro anti-picornavirus activity (MTT), CA7; assay type: cell-based; settings: HeLa-S3 cells, MTT method, 37° C.
HRV 89 (41617-Gallo) = assay: Anti-rhinovirus activity (MTT), HRV89; assay type: cell-based, human rhinovirus; settings: HeLa (Ohio strain) cells, MTT method, 33° C.
[2] = system: coxsackievirus type B4 (CB4,JVB); assay: In vitro anti-picornavirus activity (MTT), CB4; assay type: cell-based; settings: HeLa cells, MTT method, 37° C.
HeLa-S3 cells = assay: Cytotoxicity (MTT, without virus), HeLa-S3; settings: HeLa-S3, no virus, incubated for 4 days
[3] = system: human rhinovirus type 1B (HRV 1B, B632); assay: Anti-rhinovirus activity (MTT), HRV1B; assay type: cell-based; settings: HeLa (Ohio strain) cells, MTT method, 33° C.
HeLa cells = assay: Cytotoxicity (MTT, without virus), HeLa; settings: HeLa, no virus, incubated for 4 days
[4] = system: echovirus type 11 (Echo 11, Gregory); assay: In vitro anti-picornavirus activity (MTT), Echo 11; assay type: cell-based; settings: HeLa-S3 cells, MTT method, 37° C.
HeLa (Ohio strain)cells = assay: Cytotoxicity (MTT, without virus), HeLa(Ohio); settings: HeLa(Ohio), no virus, incubated for 4 days
[5] = system: Poliovirus type 1 (Polio 1, Sabin); assay: microbe, parasite or virus in culture; assay type: cell-based

SMILES | IC50 HRV2 (HRV 2 (HGP)) [µg/mL] | IC50 CA7 [1] [µg/mL] | IC50 HRV89 (HRV 89 (41617-Gallo)) [µg/mL] | IC50 CB4 [2] [µg/mL] | Cytotoxicity CC50 HeLa-S3 (HeLa-S3 cells) [µg/mL] | IC50 HRV1B [3] [µg/mL] | Cytotoxicity CC50 HeLa (HeLa cells) [µg/mL] | IC50 Echo 11 [4] [µg/mL] | Cytotoxicity CC50 HeLa(Ohio) (HeLa (Ohio strain)cells) [µg/mL] | IC50 Polio 1 [5] [µg/mL]
COc1ccc(-c2c(C)c(=O)c3cc(C(C)C)ccc3n2C)cc1 [Compound A81] | 0.86 (≈ 2.68 µM) | 0.78 (≈ 2.43 µM) | 0.55 (≈ 1.71 µM) | 2.2 (≈ 6.84 µM) | 7.6 | 1.7 (≈ 5.29 µM) | 6.5 | 0.52 (≈ 1.62 µM) | 5.8 | 0.78 (≈ 2.43 µM)
CCn1c(-c2cccc(F)c2)c(C)c(=O)c2cc(C(C)C)ccc21 [Compound A60] | 0.52 (≈ 1.61 µM) | 2.5 (≈ 7.73 µM) | 1.1 (≈ 3.4 µM) | 2.8 (≈ 8.66 µM) | 7.0 | 0.59 (≈ 1.82 µM) | 5.3 | 0.52 (≈ 1.61 µM) | 5.7 | 1.1 (≈ 3.4 µM)
CC(C)c1ccc2c(c1)c(=O)cc(-c1ccco1)n2C [Compound A303] | 0.97 (≈ 3.63 µM) | 6.5 (≈ 24.3 µM) | 1.9 (≈ 7.11 µM) | 3.6 (≈ 13.5 µM) | >20 | 1.4 (≈ 5.24 µM) | >20 | 0.83 (≈ 3.1 µM) | >20 | 1.4 (≈ 5.24 µM)
Cc1ccc(-c2cc(=O)c3cc(C(C)C)ccc3n2C)s1 [Compound A314] | 0.55 (≈ 1.85 µM) | 1.5 (≈ 5.04 µM) | 0.38 (≈ 1.28 µM) | 0.82 (≈ 2.76 µM) | >10 | 0.56 (≈ 1.88 µM) | 7.0 | 0.51 (≈ 1.71 µM) | >10 | 0.60 (≈ 2.02 µM)
CC(C)c1ccc2c(c1)c(=O)cc(-c1ccc(Cl)c(Cl)c1)n2C [Compound A61] | 0.65 (≈ 1.88 µM) | >4 | 0.38 (≈ 1.1 µM) | >4 | >4 | 0.64 (≈ 1.85 µM) | >4 | 0.40 (≈ 1.16 µM) | >4 | 0.73 (≈ 2.11 µM)
CCn1c(-c2ccccc2)c(C)c(=O)c2ccc(C(C)C)cc21 [Compound A122] | 0.43 (≈ 1.41 µM) | 6.9 (≈ 22.6 µM) | 0.35 (≈ 1.15 µM) | 5.5 (≈ 18 µM) | >10 | 0.59 (≈ 1.93 µM) | >10 | 0.54 (≈ 1.77 µM) | >10 | 1.2 (≈ 3.93 µM)
COc1ccc(-c2c(C)c(=O)c3cc(OCC(C)C)c(C)cc3n2C)cc1C [Compound A237] | 0.29 (≈ 0.764 µM) | >4 | 0.46 (≈ 1.21 µM) | 2.9 (≈ 7.64 µM) | >4 | 2.0 (≈ 5.27 µM) | >4 | 0.40 (≈ 1.05 µM) | >4 | 1.1 (≈ 2.9 µM)
COc1ccc(-c2cc(=O)c3cc(C(C)C)ccc3n2C)cc1C [Compound A97] | 0.61 (≈ 1.9 µM) | 2.1 (≈ 6.53 µM) | 0.14 (≈ 0.436 µM) | 1.4 (≈ 4.36 µM) | >10 | 0.58 (≈ 1.8 µM) | 5.1 | 0.3 (≈ 0.933 µM) | 4.5 | 0.54 (≈ 1.68 µM)
Cc1ccc(-n2c(-c3ccccc3)c(C)c(=O)c3cc(C(C)C)ccc32)cc1 [Compound A325] | 0.066 (≈ 0.18 µM) | >2.5 | 0.022 (≈ 0.0599 µM) | >2.5 | >2.5 | >2.5 | >2.5 | >2.5 | >2.5 | >2.5
COc1cc2c(=O)c(C)c(-c3ccccc3)n(C)c2cc1C(C)C [Compound A226] | 0.73 (≈ 2.27 µM) | 9.7 (≈ 30.2 µM) | <0.033 | >3.3 | >10 | 1.6 (≈ 4.98 µM) | >10 | 0.33 (≈ 1.03 µM) | >10 | 0.93 (≈ 2.89 µM)
CC(C)c1ccc2c(c1)c(=O)cc(-c1ccc(Br)s1)n2C [Compound A316] | 0.29 (≈ 0.8 µM) | 1.2 (≈ 3.31 µM) | 0.27 (≈ 0.745 µM) | 1.1 (≈ 3.04 µM) | >5 | 0.56 (≈ 1.55 µM) | >5 | 0.39 (≈ 1.08 µM) | >5 | 0.78 (≈ 2.15 µM)
CCn1c(-c2ccccn2)cc(=O)c2cc(C(C)C)ccc21 [Compound A296] | 2.0 (≈ 6.84 µM) | 20 (≈ 68.4 µM) | 4.8 (≈ 16.4 µM) | 17 (≈ 58.1 µM) | >100 | 4.5 (≈ 15.4 µM) | 75 | 1.7 (≈ 5.81 µM) | 68 | 5.1 (≈ 17.4 µM)
CCn1c(-c2cccs2)c(C)c(=O)c2cc(C(C)C)ccc21 [Compound A311] | 0.53 (≈ 1.7 µM) | 3.3 (≈ 10.6 µM) | 1.2 (≈ 3.85 µM) | 2.0 (≈ 6.42 µM) | >10 | 1.0 (≈ 3.21 µM) | 6.8 | 0.42 (≈ 1.35 µM) | >10 | 0.67 (≈ 2.15 µM)
COc1ccc(-n2c(-c3ccccc3)c(C)c(=O)c3cc(C(C)C)ccc32)cc1 [Compound A326] | 0.48 (≈ 1.25 µM) | >2.5 | 0.067 (≈ 0.175 µM) | >2.5 | >2.5 | >2.5 | >2.5 | >2.5 | >2.5 | >2.5
CCCc1ccc2c(c1)c(=O)c(C)c(-c1ccccc1)n2CC [Compound A30] | 0.48 (≈ 1.57 µM) | 1.2 (≈ 3.93 µM) | 1.0 (≈ 3.27 µM) | 1.8 (≈ 5.89 µM) | 6.5 | 1.6 (≈ 5.24 µM) | 6.0 | 0.42 (≈ 1.38 µM) | 5.8 | 1.0 (≈ 3.27 µM)
CCn1c(-c2ccsc2)cc(=O)c2cc(C(C)C)ccc21 [Compound A313] | 0.33 (≈ 1.11 µM) | 3.8 (≈ 12.8 µM) | 0.96 (≈ 3.23 µM) | 3.0 (≈ 10.1 µM) | >20 | 0.90 (≈ 3.03 µM) | 18 | 0.35 (≈ 1.18 µM) | 15 | 0.94 (≈ 3.16 µM)
CCn1c(-c2ccccc2)cc(=O)c2c(C)c(OCC(C)C)ccc21 [Compound A187] | 0.57 (≈ 1.7 µM) | 3.0 (≈ 8.94 µM) | 0.15 (≈ 0.447 µM) | 0.99 (≈ 2.95 µM) | >4 | 0.71 (≈ 2.12 µM) | >4 | 0.21 (≈ 0.626 µM) | >4 | 0.53 (≈ 1.58 µM)
Cc1cc(-c2cc(=O)c3cc(C(C)C)ccc3n2C)ccc1OC(C)C [Compound A100] | 0.43 (≈ 1.23 µM) | 4.5 (≈ 12.9 µM) | 0.20 (≈ 0.572 µM) | 1.4 (≈ 4.01 µM) | >5 | 0.85 (≈ 2.43 µM) | >5 | 0.24 (≈ 0.687 µM) | >5 | 0.57 (≈ 1.63 µM)
CCn1c(-c2cccc(OC)c2)c(C)c(=O)c2cc(C(C)C)ccc21 [Compound A78] | 1.7 (≈ 5.07 µM) | 7.1 (≈ 21.2 µM) | 2.9 (≈ 8.65 µM) | 2.6 (≈ 7.75 µM) | >8 | 5.6 (≈ 16.7 µM) | >8 | 1.2 (≈ 3.58 µM) | >8 | 1.3 (≈ 3.88 µM)
Cc1c(-c2ccccc2)n(-c2ccccc2F)c2ccc(C(C)C)cc2c1=O [Compound A321] | 0.056 (≈ 0.151 µM) | – | 0.066 (≈ 0.178 µM) | – | – | 0.60 (≈ 1.62 µM) | – | – | >1 | –
